From patent publication US8058243B2, “Method for treating a brain cancer with ifenprodil” (HSC Research and Development Limited Partnership, priority 2006, dated 2011)
Where a name gives a salt, the structure may show the parent alone. Read-outs that look alike come from different tables or passages of the source.

Test system: murine neural precursor cells (neurosphere cultures)
Assay: HTS of LOPAC library against secondary neurosphere cultures, MTT proliferation assay at 3 μM, day 7 (z score, P value)
Assay type: cell-based, mouse
[1] = LOPAC library screen, 3 μM, MTT, secondary neurosphere cultures, day 7
[2] = LOPAC primary screen, neurosphere MTT proliferation, 3 μM, day 7
[3] = yes/no: significantly inhibited neurosphere proliferation in primary screen
[4] = yes/no: significantly inhibited neurosphere proliferation (P<0.01) in the primary screen
[5] = primary LOPAC screen, 3 μM, MTT, neurosphere proliferation
[6] = yes/no: significantly inhibited neurosphere proliferation in the primary screen
[7] = yes/no: significantly inhibited neurosphere proliferation (P<0.01) in primary screen
[8] = LOPAC library screen at 3 μM, secondary neurosphere cultures, MTT
[9] = LOPAC screen, neurosphere MTT proliferation, 3 μM, day 7
[10] = yes = significantly inhibited neurosphere proliferation (P<0.01) in the primary screen

CC(C)(C)NCC(O)c1ccccc1Cl (stereo not drawn) [Tulobuterol hydrochloride]
Z Score [1]: −1.767 | Z score [2]: −1.767 | Activity [3]: no

CC(C)[C@H](CO)Nc1nc(Nc2cccc(Cl)c2)c2ncn(C(C)C)c2n1 [Purvalanol A]
Z Score [1]: −11.23 | Z score [2]: −11.234 | Activity [4]: yes

NC(=O)c1cnccn1 [Pyrazinecarboxamide]
Z Score [1]: −1.617 | Z score [2]: −1.617 | Activity [3]: no

CC(=O)c1ccc(S(=O)(=O)NC(=O)NC2CCCCC2)cc1 [Acetohexamide]
Z Score [1]: −2.24 | Z score [5]: −2.240 | Activity [6]: no

Cl.O[Si](CCCN1CCCCC1)(c1ccc(F)cc1)C1CCCCC1 (stereo not drawn)
Z Score [1]: −1.492 | Z score [2]: −1.492 | Activity [7]: no

NC1CCN(O)C1=O (racemic) [(±)-HA-966]
Activity: no | Z score [5]: 1.157

COc1cc(-c2ccc(=O)[nH]n2)ccc1OC(F)F [Zardaverine]
Z Score [8]: −0.3412 | Z score [5]: −0.341

C[N+](C)(C)CCOC(=O)CBr.[Br-] [Bromoacetylcholine bromide]
Z Score: −0.3547 | Z score [9]: −0.355 | Activity [7]: no

COc1cc2c(cc1C(F)(F)F)N(C(=O)Nc1cc(F)cc(-c3cccnc3)c1)CC2 [SB 228357]
Z Score: 0.03426 | Z score [2]: 0.034 | Activity [7]: no

O=C(O)CCCCCCC1C(=O)NC(=O)N1CCC(O)C1CCCCC1 (stereo not drawn) [BW 245C]
Z Score: 1.036 | Z score [2]: 1.036 | Activity [3]: no

NC(Cc1cc(O)c(O)cc1O)C(=O)O (racemic) [6-Hydroxy-DL-DOPA]
Z Score: 1.204 | Z score [2]: 1.204 | Activity [7]: no

Cc1cc(C(C)(C)C)c(O)c(C)c1CC1=NCCN1 [Oxymetazoline hydrochloride]
Z Score [1]: −2.72 | Z score [2]: −2.720 | Activity [10]: yes

O=c1[nH]c(=O)n([C@H]2C[C@H](O)[C@@H](CO)O2)cc1Br [5-Bromo-2′-deoxyuridine]
Z score [9]: 2.580 | Activity [7]: no

NC(=O)c1cc[n+](CC2=C(C(=O)O)N3C(=O)[C@@H](NC(=O)[C@@H](c4ccccc4)S(=O)(=O)[O-])[C@H]3SC2)cc1 [Cefsulodin sodium salt hydrate]
Z Score [1]: −2.277 | Z score [2]: −2.277 | Activity [4]: no

Cl.Fc1ccc(C(OCCCc2c[nH]cn2)c2ccc(F)cc2)cc1
Z Score: −0.01466

O=C(O)[C@@H]1[C@H](C(=O)O)[C@H]2CC[C@@H]1O2 [Endothall]
Z Score: −1.143 | Z score [2]: −1.143 | Activity [7]: no

Cc1cn([C@H]2C[C@H](N=[N+]=[N-])[C@@H](CO)O2)c(=O)[nH]c1=O [3′-Azido-3′-deoxythymidine]
Activity: yes | Z Score [1]: −5.023 | Z score [2]: −5.023

CC(C)NCC(O)COc1cccc2ccccc12.Cl (racemic) [(±)-Propranolol hydrochloride]
Z score [2]: 0.357 | Activity [3]: no

N=C1Sc2ccccc2C2=NCCCN12 [PD 404,182]
Z Score: 0.09055 | Z score [2]: 0.091 | Activity [3]: no

N=C(N)NC(=O)c1nc(Cl)c(N)nc1N [Amiloride hydrochloride]
Z Score [8]: −0.7992 | Z score [2]: −0.799 | Activity [4]: no

CCOC(=O)c1ncn2c1CN(C)C(=O)c1cc(F)ccc1-2 [Flumazenil]
Activity: no | Z Score [8]: −0.3664 | Z score [2]: −0.366

CC(COc1ccc(/C=C/c2ccccc2)cc1)[N+](C)(C)C (stereo not drawn)
Z score [2]: −11.127 | Activity [4]: yes

Cn1ccnc1 [1-Methylimidazole]
Z Score (168 h, 3 µM): −0.8469 | Z score (168 h, 3 µM): −0.847 | Activity [10]: no

CCCCC[C@H](CC(=O)NO)C(=O)N[C@H](C(=O)N1CCC[C@H]1CO)C(C)C [Actinonin]
Z Score (168 h, 3 µM): −3.501 | Z score (168 h, 3 µM): −3.501 | Activity [10]: yes

C[N+](C)(C)CCOC(N)=O [Carbachol]
Z Score (LOPAC library screen, 3 μM, MTT, neurosphere cultures): −0.03381 | Z score [9]: −0.034 | Activity [7]: no

CCCCCCCCCCCCCCCCCC(=O)OC(CC(=O)O)C[N+](C)(C)C.[Cl-] (racemic) [DL-Stearoylcarnitine chloride]
Z Score: 0.6378 | Z score [2]: 0.638 | Activity [3]: no

COc1ccccc1N1CCN(CCN(C(=O)c2ccc(I)cc2)c2ccccn2)CC1.Cl [p-MPPI hydrochloride]
Z Score: 0.2606 | Z score [2]: 0.261 | Activity [10]: no

(−)-Quinpirole hydrochloride
Z Score: −1.565 | Z score: −1.565

CC(N)Cc1c[nH]c2ccc(OCc3cccs3)cc12 (stereo not drawn) [BW 723C86]
Z Score: 0.7247 | Z score [9]: 0.725 | Activity [7]: no

[Cl-].[Li+] [Lithium Chloride]
Z Score: −0.9113 | Z score [2]: −0.911 | Activity [7]: no

CC12CC3CC(C)(C1)CC(N)(C3)C2 [Memantine hydrochloride]
Z Score [8]: −0.141 | Z score [2]: −0.141 | Activity [10]: no

C[N+](C)(C)CC(=O)O [Betaine hydrochloride]
Z Score [1]: −2.668 | Z score [2]: −2.668 | Activity [4]: yes

O=C(C1CCCCC1)N1CC(=O)N2CCc3ccccc3C2C1 (stereo not drawn) [Praziquantel]
Z Score [1]: −2.296 | Z score [2]: −2.296 | Activity [10]: no

C[C@H](CCC(=O)NCCS(=O)(=O)O)[C@H]1CC[C@H]2[C@@H]3[C@H](O)C[C@@H]4C[C@H](O)CC[C@]4(C)[C@H]3C[C@H](O)[C@]12C [Sodium Taurocholate]
Activity: no | Z Score: −0.7604 | Z score: −0.760

Cl.OC1CCCCC1N1CCC(c2ccccc2)CC1 (stereo not drawn) [(B1)-Vesamicol hydrochloride]
Z Score: −1.967

NC1(C(=O)O)CCc2cc(C(=O)O)ccc21 (stereo not drawn) [AIDA]
Z Score: 0.154 | Z score [5]: 0.154 | Activity [6]: no

CCNC(=O)[C@H]1O[C@@H](n2cnc3c(N)ncnc32)[C@H](O)[C@@H]1O [5′-N-Ethylcarboxamidoadenosine]
Z Score [1]: −2.587 | Z score [2]: −2.587 | Activity [4]: yes

COc1cc(C(O)CO)ccc1OS(=O)(=O)[O-].[K+] (stereo not drawn) [MHPG sulfate potassium]
Z Score: −0.5556 | Z score [2]: −0.556 | Activity [7]: no

CC(=O)SCC[N+](C)(C)C.[Cl-] [Acetyithiocholine chloride]
Z Score: 0.004223

CC(N)Cc1c[nH]c2ccc(O)cc12.O=C(O)/C=C\C(=O)O (stereo not drawn) [alpha-Methyl-5-hydroxytryptamine maleate]
Z Score: −0.7796 | Z score [2]: −0.780 | Activity [10]: no

N[C@H](C(=O)O)c1cc(O)no1 (racemic) [(±)-Ibotenic acid]
Z score [2]: −1.650 | Activity [7]: no

CC(C)(Sc1ccc(CCN(CCCCC2CCCCC2)C(=O)NC2CCCCC2)cc1)C(=O)O [GW7647]
Z Score: −0.9923 | Z score [2]: −0.992 | Activity [7]: no

O=C(O)c1cccnc1Nc1cccc(C(F)(F)F)c1 [Niflumic acid]
Z Score [1]: −1.958 | Z score [2]: −1.958 | Activity [10]: no

COc1ccc(C2CNC(=O)C2)cc1OC1CCCC1 (stereo not drawn) [Rolipram]
Z Score [1]: −2.091 | Z score [2]: −2.091 | Activity [3]: no

COC(=O)C1=C(C)NC(C)=C(C(=O)OCCN(C)Cc2ccccc2)C1c1cccc([N+](=O)[O-])c1 (stereo not drawn) [Nicardipine hydrochloride]
Z Score (LOPAC library screen at 3 μM, MTT, secondary neurosphere cultures, screened in singlets): 1.869 | Z score [2]: 1.869 | Activity [10]: no

Nc1ncnc2c1c(-c1ccc(Oc3ccccc3)cc1)cn2C1CCCC1
Z Score: −1.412 | Z score [9]: −1.412 | Activity [7]: no

S(−)-p-Bromotetramisole oxalate
Z Score: −1.295 | Z score [2]: −1.295 | Activity [3]: no

NC(CCCP(=O)(O)O)C(=O)O (racemic) [(±)-2-Amino-5-phosphonopentanoic acid]
Z score (168 h, 3 µM): −1.045 | Activity [6]: no

R(−)-N-Allylnorapomorphine hydrobromide
Z Score: −7.839 | Z score [2]: −7.839 | Activity [4]: yes

CC(C)NCC(O)c1ccc(O)c(O)c1.Cl (racemic) [(±)-Isopoterenol hydrochloride]
Z score [2]: −0.572 | Activity [7]: no

C[C@H](N)CN1CCc2ccc(Br)cc21.C[C@H](N)CN1CCc2ccc(Br)cc21.O=C(O)/C=C/C(=O)O [VER-3323 hemifumarate salt]
Z Score: −0.7614 | Z score [2]: −0.761 | Activity [7]: no

CC(C)c1cccc(C(C)C)c1O [Propofol]
Activity: no | Z Score: 0.3768 | Z score: 0.377

CCN1CCCC1CNC(=O)c1cc(S(N)(=O)=O)ccc1OC (single isomer, unassigned; (-)) [(−)-Sulpiride]
Z Score [1]: −2.647 | Z score [2]: −2.647 | Activity [4]: yes

Br.Oc1ccc(C2CNCc3sccc32)cc1O (stereo not drawn) [SKF 89626]
Activity: no | Z Score: −0.04369 | Z score [2]: −0.044

Cl.Nc1ccn([C@@H]2O[C@H](CO)[C@@H](O)[C@@H]2O)c(=O)n1
Z Score [1]: −11.27 | Z score [2]: −11.274 | Activity [4]: yes

NC(N)=NCCCCN=C(N)N [Arcaine sulfate]
Z Score [8]: −0.3299 | Z score [2]: −0.330 | Activity [3]: no

N#C/C(=C\c1ccc(O)c(O)c1)C(=O)Nc1ccccc1 [Tyrphostin AG 494]
Z Score: −2.275 | Z score [5]: −2.275 | Activity [6]: no
